Test results published in patent publication US7985731B2, “Sugar chain added GLP-1 peptide” (Otsuka Chemical Holdings Co., Ltd., priority 2007, dated 2011).
Ends that are not written are not given here. asialo oligosaccharide = not defined here

Assays:
[1] = Test Example 1: stability in plasma; type: in vitro ADME; conditions: PBS 70% / plasma 30%, 37° C., sampled 10 to 1440 minutes
Experimental: 0.1 mg of the peptide prepared in Example 7 or Comparative Example 1 was placed in an Eppendorf tube, and PBS (0.08 ml, 70% of the whole amount) and plasma (0.034 ml, 30% of the whole amount) were sequentially placed therein to bring about the solution amount to 0.114 ml in total. The mixture was allowed to react at 37° C.
The time when plasma was added to the reaction vessel was defined as 0 min. 0.01 ml aliquots were taken from the reaction solution on 10, 30, 60, 180, 360, 720 and 1440 minutes for sampling.
Each sampled reaction solution was mixed with 0.02 ml of 10% trifluoroacetic acid solution prepared in advance in an Eppendorf tube and then centrifuged. A 0.025 ml aliquot of the supernatant of the solution mixture was injected into HPLC to analyze the composition of the reaction solution (reaction monitoring conditions: Shiseido CAPCELL PAK C18, UG120, 250×4.6 mm, developing solvent A: 0.1% aqueous TFA solution, B: 0.1% TFA acetonitrile: water=90:10, gradient A:B=95:5→5:95, 15 min, flow rate: 0.7 ml/min). The results are shown in FIGS. 5 (Example 7) and 6 (Comparative Example 1).

[2] = tested on: type-2 diabetes model mice (BKS.Cg-+Lepr db/+Lepr db/Jcl); experiment: Test Example 2: effect of lowering blood-sugar levels in db/db mice-1; type: in vivo; conditions: 9 nmol/kg intraperitoneal, 8-week-old male db/db mice, 0-180 minutes
Experimental: The peptide prepared in each of Examples 1 to 5 or Comparative Example 1 was intraperitoneally administered as the same sample at a dose of […] of body weight (sample concentration: 9 nmol/kg of body weight) to each of three 8-week-old male type-2 diabetes model mice (BKS.Cg−+Lepr^db/Lepr^db/Jcl*). Specifically, the peptide in a PBS solution (9 nmol/10 ml) was intraperitoneally administered at a dose of 10 ml/kg to the BKS.Cg−+Lepr^db/+Lepr^db/Jcl mice (8 week old, male). 0, 30, 60, 90, 120 and 180 minutes after the administration, 0.03 ml of peripheral blood from the retro-orbital venous plexus was collected. The obtained blood was diluted with PBS to 0.3 ml in total, and the solution was centrifuged to separate plasma and hemocyte components. Then, only the plasma component was transferred to an Eppendorf tube separately prepared and refrigerated. A glucose concentration in plasma was measured in accordance with Glucose CII-Test Wako using an absorptiometer. The results were obtained by statistical processing.

[3] = tested on: C57BL/6JJcl mice; experiment: Test Example 7: Oral Glucose Tolerance Test (OGTT); type: in vivo; conditions: 9 nmol/kg intraperitoneal 30 minutes before glucose 1 mg/g oral
How it was run: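 Overnight-fasted mice received oral glucose 1 mg/g 30 minutes after treatment. Orbital blood taken before and at 30, 60, 120 minutes post-glucose. Blood glucose measured by glucometer.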

[4] = tested on: db/db (BKS.Cg-+Lepr db/+Lepr db/Jcl) mice; experiment: Test Example 8: effect of lowering blood-sugar levels in diabetes model mice; type: in vivo; conditions: 9 nmol/kg intraperitoneal, 10-week-old male mice
How it was run: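 Male db/db mice, 10 weeks old, given oligosaccharide-chain-added GLP-1 peptide or unmodified GLP-1 intraperitoneally in PBS (9 nmol/10 ml, 10 ml/kg). Orbital blood sampled before dosing and at 30, 60, 120, 180 and 300 min; blood glucose read with a glucometer.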

| Compound | stability in plasma (HPLC analysis of remaining peptide) [1] | effect of lowering blood-sugar levels (glucose concentration in plasma) [2] | effect of suppressing rise in blood-sugar levels in OGTT [3] | effect of lowering blood-sugar levels in db/db mice [4] |
| --- | --- | --- | --- | --- |
| 19Asn GLP-1-asialo (HAEGTFTSDVSSN(asialo oligosaccharide)LEGQAAKEFIAWLVKGRG; reading uncertain) [Example 7, GLP-1 wherein position 19 is substituted by asialo oligosaccharide chain added Asn] | mostly remained even after 24 hours | – | – | – |
| CC[C@H](C)[C@H](NC(=O)[C@H](Cc1ccccc1)NC(=O)[C@H](CCC(=O)O)NC(=O)[C@H](CCCCN)NC(=O)[C@H](C)NC(=O)[C@H](C)NC(=O)[C@H](CCC(N)=O)NC(=O)CNC(=O)[C@H](CCC(=O)O)NC(=O)[C@H](CC(C)C)NC(=O)[C@H](Cc1ccc(O)cc1)NC(=O)[C@H](CO)NC(=O)[C@H](CO)NC(=O)[C@@H](NC(=O)[C@H](CC(=O)O)NC(=O)[C@H](CO)NC(=O)[C@@H](NC(=O)[C@H](Cc1ccccc1)NC(=O)[C@@H](NC(=O)CNC(=O)[C@H](CCC(=O)O)NC(=O)[C@H](C)NC(=O)[C@@H](N)Cc1c[nH]cn1)[C@@H](C)O)[C@@H](C)O)C(C)C)C(=O)N[C@@H](C)C(=O)N[C@@H](Cc1c[nH]c2ccccc12)C(=O)N[C@@H](CC(C)C)C(=O)N[C@H](C(=O)N[C@@H](CCCCN)C(=O)NCC(=O)N[C@@H](CCCNC(=N)N)C(=O)NCC(=O)O)C(C)C [Comparative Example 1, GLP-1] | mostly degraded by 180 minutes after the plasma addition | hardly lowered blood-sugar levels | small effect of suppressing rise in blood-sugar levels | almost equal to those in PBS-administered mice |
